# From patent US20230103791A1 (GLAXOSMITHKLINE INTELLECTUAL PROPERTY DEVELOPMENT LIMITED, priority 2019, published 2023)
# Target: T1, human Nav1.8 (Homo sapiens, UniProt Q9Y5Y9)
# T1 construct: expressed in transfected cells; host or cells: HEK293 (HEK293-Nav1.8)
# Experiment: Nav1.8 sodium channels assay, QPatch 48 HTX electrophysiology in HEK293-Nav1.8 cells
# Type: cell-based
# Details: at least one set of experimental runs; read-out: average pIC50 value against Nav1.8 (converted)
# Procedure: Human embryonic kidney […] cells (HEK293) expressing human Nav1.8, human Navβ1 and human TREK1 (HEK293-Nav1.8) were grown at 37° C., 5% CO2 in 150 cm^2 flasks. HEK293-Nav1.8 were passaged every 2-3 days when confluency reached 80-90% in to T175 cell culture flasks.
# Pharmacological assessment of the invention was performed using HEK293-Nav1.8 in combination with an assay developed on the QPatch 48 HTX electrophysiological system. HEK293-Nav1.8 were prepared on the day of use by removing culture media, washing in DPBS, adding Accutase (2 ml to cover the surface, aspirate 1 ml then 1.5 min at 37° C.) followed by addition of CHO-SFM II to stop the enzyme digestion and in order to obtain a suspension of 3×10^6 cell/mL.
# The invention was prepared in an extracellular solution of the following composition (in mM) NaCl 145, KCl 4, CaCl2 2, MgCl 2, HEPES 1, Glucose 10, pH 7.4 with NaOH Osmolality 300 mOsM/L. The intracellular solution was used of the following composition (in mM) CsF 115, CsCl 20, NaCl 5, EGTA 10, HEPES 10, Sucrose 20, pH 7.2 with CsOH Osmolality 310 mOsm/L.
# Utilizing the voltage-clamp mode in the QPatch 48 HTX system a half inactivation state voltage protocol (V1/2) was used to determine pharmacological activity of the invention at Nav1.8 ion channels. A V1/2 protocol was utilized with the following voltage steps: a holding voltage of −100 mV was established followed by a 20 ms voltage step to 0 mV (P1), followed by an inactivating voltage step at −46 mV for 8 seconds, followed by a step to −100 mV for 20 ms, before a 20 ms step to 0 mV (P2) before returning to the holding voltage of −100 mV. This voltage protocol was repeated at a frequency of 0.07 Hz., current magnitude was quantified at the P2 step throughout the recording. Inhibition of the measured current amplitude with the invention was analyzed by fitting a 6-8 point dose-response curve allowing determination of the fifty percent inhibition concentration (IC50). Within the QPatch HTX software, P2 current was normalized according to measurements made at baseline after compound and after positive reference compound and fit to the following equation: […]
# To assess current run-down over the course of the experiment vehicle-only wells were utilized and the normalized current with vehicle-only (n.IVEH) was determined. To correct the compound response for run-down, the currents were correct according the following formula: […]
# Compounds of the invention are tested for activity against Nav1. 8 sodium channels in the above assay.
# T1 sequence (Q9Y5Y9 whole entry): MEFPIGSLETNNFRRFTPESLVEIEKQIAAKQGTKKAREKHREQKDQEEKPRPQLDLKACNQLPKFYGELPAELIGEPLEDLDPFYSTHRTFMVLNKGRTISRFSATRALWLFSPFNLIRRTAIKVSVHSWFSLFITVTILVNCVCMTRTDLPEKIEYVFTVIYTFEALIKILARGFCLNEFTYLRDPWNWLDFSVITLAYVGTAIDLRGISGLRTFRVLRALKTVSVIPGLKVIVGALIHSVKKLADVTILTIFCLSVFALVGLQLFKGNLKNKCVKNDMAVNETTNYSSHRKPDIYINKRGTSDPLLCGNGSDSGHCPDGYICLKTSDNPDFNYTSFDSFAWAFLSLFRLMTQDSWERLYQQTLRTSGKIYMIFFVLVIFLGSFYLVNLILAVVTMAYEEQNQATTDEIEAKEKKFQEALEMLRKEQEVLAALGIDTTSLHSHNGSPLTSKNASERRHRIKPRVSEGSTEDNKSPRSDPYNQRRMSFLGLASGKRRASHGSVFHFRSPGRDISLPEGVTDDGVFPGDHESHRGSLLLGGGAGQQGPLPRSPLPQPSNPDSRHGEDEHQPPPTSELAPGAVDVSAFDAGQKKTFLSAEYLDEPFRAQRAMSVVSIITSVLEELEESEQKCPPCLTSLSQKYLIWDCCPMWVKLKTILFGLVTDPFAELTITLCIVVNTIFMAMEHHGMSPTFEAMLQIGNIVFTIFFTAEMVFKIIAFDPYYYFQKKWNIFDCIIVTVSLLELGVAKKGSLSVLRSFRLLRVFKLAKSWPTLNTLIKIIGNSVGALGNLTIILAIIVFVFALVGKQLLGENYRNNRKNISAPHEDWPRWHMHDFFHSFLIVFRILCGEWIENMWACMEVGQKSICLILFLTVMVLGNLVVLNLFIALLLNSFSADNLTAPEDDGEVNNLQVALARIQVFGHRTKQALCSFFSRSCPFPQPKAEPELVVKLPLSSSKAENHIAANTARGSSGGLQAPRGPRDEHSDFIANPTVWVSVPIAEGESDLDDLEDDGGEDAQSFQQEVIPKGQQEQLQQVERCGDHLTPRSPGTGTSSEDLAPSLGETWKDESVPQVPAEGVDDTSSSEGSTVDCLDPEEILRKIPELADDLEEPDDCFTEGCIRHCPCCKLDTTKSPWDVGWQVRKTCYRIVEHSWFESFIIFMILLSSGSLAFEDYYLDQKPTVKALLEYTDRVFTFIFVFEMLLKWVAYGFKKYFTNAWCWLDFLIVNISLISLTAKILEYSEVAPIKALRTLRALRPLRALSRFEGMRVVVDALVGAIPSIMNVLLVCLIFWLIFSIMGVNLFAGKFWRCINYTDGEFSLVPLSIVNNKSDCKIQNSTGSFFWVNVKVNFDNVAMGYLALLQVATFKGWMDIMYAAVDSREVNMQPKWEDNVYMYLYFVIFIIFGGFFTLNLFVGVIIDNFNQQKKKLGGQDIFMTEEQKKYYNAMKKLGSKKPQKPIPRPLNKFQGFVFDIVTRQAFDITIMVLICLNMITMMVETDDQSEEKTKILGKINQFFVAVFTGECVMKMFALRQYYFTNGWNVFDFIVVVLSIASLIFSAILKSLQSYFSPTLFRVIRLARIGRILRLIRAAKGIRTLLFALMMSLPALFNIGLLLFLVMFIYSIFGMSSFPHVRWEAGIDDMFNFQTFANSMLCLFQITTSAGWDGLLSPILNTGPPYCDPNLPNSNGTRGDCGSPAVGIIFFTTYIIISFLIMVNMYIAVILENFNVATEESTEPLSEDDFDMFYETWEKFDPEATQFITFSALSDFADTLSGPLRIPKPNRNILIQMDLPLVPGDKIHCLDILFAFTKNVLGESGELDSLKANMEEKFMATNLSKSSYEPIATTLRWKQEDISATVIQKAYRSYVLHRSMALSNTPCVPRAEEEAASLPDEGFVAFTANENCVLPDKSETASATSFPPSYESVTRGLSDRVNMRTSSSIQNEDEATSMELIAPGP
# T1 sequence (Q07699 19-218 partner): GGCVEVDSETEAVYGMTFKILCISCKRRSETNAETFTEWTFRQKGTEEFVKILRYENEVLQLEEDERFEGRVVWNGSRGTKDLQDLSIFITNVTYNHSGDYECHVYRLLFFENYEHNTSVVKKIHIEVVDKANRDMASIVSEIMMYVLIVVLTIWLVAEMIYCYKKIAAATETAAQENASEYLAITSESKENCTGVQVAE
row,Structure (SMILES),IC50 [nM]
1,"Cc1cc(F)ccc1N1CN(c2ccc(=O)[nH]c2C)C(=O)c2ccccc21 [Example 52, 1-(4-fluoro-2-methylphenyl)-3-(2-methyl-6-oxo-1,6-dihydropyridin-3-yl)-2,3-dihydroquinazolin-4(1H)-one]",≤ 100
2,"Cc1ccc2c(c1)N(c1ccc(F)cc1C)CN(c1ccc(=O)[nH]c1C)C2=O [Example 57, 1-(4-fluoro-2-methylphenyl)-7-methyl-3-(2-methyl-6-oxo-1,6-dihydropyridin-3-yl)-2,3-dihydroquinazolin-4(1H)-one]",≤ 100
3,"CCc1cc(F)ccc1N1CN(c2ccc(=O)[nH]c2C)C(=O)c2cc(C(F)(F)F)ccc21 [Example 60, 1-(2-ethyl-4-fluorophenyl)-3-(2-methyl-6-oxo-1,6-dihydropyridin-3-yl)-6-(trifluoromethyl)-2,3-dihydroquinazolin-4(1H)-one]",≤ 100
4,"Cc1cc(F)ccc1N1CN(c2c[nH]c(=O)nc2C)C(=O)c2cc(Cl)ccc21 [Example 61, 6-chloro-1-(4-fluoro-2-methylphenyl)-3-(4-methyl-2-oxo-1,2-dihydropyrimidin-5-yl)-2,3-dihydroquinazolin-4(1H)-one]",≤ 100
5,"Cc1cc(=O)[nH]c(C)c1N1CN(c2ccc(F)cc2C(C)C)c2cc(C(F)(F)F)ccc2C1=O [Example 62, 3-(2,4-dimethyl-6-oxo-1,6-dihydropyridin-3-yl)-1-(4-fluoro-2-isopropylphenyl)-7-(trifluoromethyl)-2,3-dihydroquinazolin-4(1H)-one]",794 to 7940
6,Cc1[nH]c(=O)ccc1N1CN(c2ccc(F)cc2C(C)C)c2ncc(C(F)(F)F)cc2C1=O [Example 63],≤ 100

# Continued, values first:
row,IC50 [nM],Structure (SMILES)
1,794 to 7940,"Cc1cc(N2CN(c3ccc(F)cc3C)c3cc(C(F)(F)F)ccc3C2=O)cc(=O)[nH]1 [Example 53, 1-(4-fluoro-2-methylphenyl)-3-(6-methyl-2-oxo-1,2-dihydropyridin-4-yl)-7-(trifluoromethyl)-2,3-dihydroquinazolin-4(1H)-one]"
2,794 to 7940,"Cc1c[nH]c(=O)cc1N1CN(c2ccc(F)cc2C)c2cc(C(F)(F)F)ccc2C1=O [Example 54, 1-(4-fluoro-2-methylphenyl)-3-(5-methyl-2-oxo-1,2-dihydropyridin-4-yl)-7-(trifluoromethyl)-2,3-dihydroquinazolin-4(1H)-one]"
3,794 to 7940,"Cc1cc(F)ccc1N1CN(c2cc[nH]c(=O)c2C)C(=O)c2ccc(C(F)(F)F)cc21 [Example 55, 1-(4-fluoro-2-methylphenyl)-3-(3-methyl-2-oxo-1,2-dihydropyridin-4-yl)-7-(trifluoromethyl)-2,3-dihydroquinazolin-4(1H)-one]"
4,≤ 100,"Cc1cc(F)ccc1N1CN(c2ccc(=O)[nH]c2C)C(=O)c2ccc(OC(F)(F)F)cc21 [Example 56, 1-(4-fluoro-2-methylphenyl)-3-(2-methyl-6-oxo-1,6-dihydropyridin-3-yl)-7-(trifluoromethoxy)-2,3-dihydroquinazolin-4(1H)-one]"
5,126 to 631,"Cc1cc(F)ccc1N1CN(c2ncc(=O)[nH]c2C)C(=O)c2ccc(C(F)(F)F)cc21 [Example 58, 1-(4-fluoro-2-methylphenyl)-3-(3-methyl-5-oxo-4,5-dihydropyrazin-2-yl)-7-(trifluoromethyl)-2,3-dihydroquinazolin-4(1H)-one]"
6,794 to 7940,"Cc1cc(F)ccc1N1CN(c2cc(=O)[nH]c(=O)[nH]2)C(=O)c2ccc(C(F)(F)F)cc21 [Example 59, 6-(1-(4-fluoro-2-methylphenyl)-4-oxo-7-(trifluoromethyl)-1,4-dihydroquinazolin-3(2H)-yl)pyrimidine-2,4(1H,3H)-dione]"
7,≤ 100,"CCc1[nH]c(=O)ccc1N1CN(c2ccc(F)cc2C)c2ccc(C(F)(F)F)cc2C1=O [Example 64, 3-(2-ethyl-6-oxo-1,6-dihydropyridin-3-yl)-1-(4-fluoro-2-methylphenyl)-6-(trifluoromethyl)-2,3-dihydroquinazolin-4(1H)-one]"
